The test system of assay [1] is acid secretion in pylorus-ligated rats. The assay can be described thus: Anti-secretory effect (histamine-stimulated gastric acid secretion) in pylorus-ligated rat. It is filed as in vivo, male wistar rats. As to conditions: 30 min before histamine 3 mg/kg s.c., ** at 1% vs control; for inhibition in vivo at 2 mg/kg: Rattus norvegicus, sc, 3 h, 2 mg/kg s.c., n=5, * significant at 5%, read-out: inhibitory effect of acid secretion (%) at 2 mg/kg s.c. Here is the method: (A) Anti-secretory Effect in Pylorus-ligated Rat
After 24 hr fasting, male wistar rats weighing about 160 g were anesthetized by intraperitoreal injection of urethans 1.2 g/kg. Then, after ligating the pylorus and the esophagus, the proventriculus was incised and a double polyethylene cannula was inserted. The gastric wall was washed out with 5 ml of physiological saline every 30 minutes and the amount of acid contained in the saline after washing was measured by titration. After measuring the basal acid secretion of the pylorus ligated rats three times, the compounds of the invention, 2 mg/kg, were administered subcutaneously and, 30 minutes thereafter, histamine 3 mg/kg, was administered also subcutaneously. Then, the amounts of acid secretion were measured for 3 hours. […] Then, an inhibition rate was calculated in accordance with the following formula, in relation to the increment values measured for the control group. [formula]
One group included five examples.

Assay [2] concerns the target T1, histamine H2 receptor in atria (Cavia porcellus, UniProt P47747).
T1 construct: right atrium was isolated; from tissue; host or cells: isolated right atrium of male Hartley guinea pig
The assay can be described thus: Histamine H2 receptor inhibition effect by isolated guinea pig right atrium preparation (negative chronotropic effect). It is filed as cell-based, Male Hartley Guinea Pig. As to conditions: 5×10^-6 mol sample 3 minutes prior to histamine, mean of five; for Kb: read-out: inhibitory effect of histamine H2 receptor in atria (pA2 value) (converted). Here is the method: (B) Measurement of Histamine H2 Receptor Inhibition Effect by Isolated Guinea Pig Right Atrium Preparation
Male Hartley Guinea Pig weighing around 400 g was sacrified by decapitation, and right atrium was isolated. The right atrium was suspended in an organ bath (50 ml) containing modified Ringer solution. Under application of a tensile load of 1 g, the heart rate was recorded by means of a polygraph. Histamine was applied cumulatively from 1×10^-7 mol to 3×10^-4 mol and a cumulative dosage response curve was drawn. Then, 5×10^-6 mol of the sample was administered 3 minutes prios to histamine application. The negative logarithmic value (pA2) of the specimen molarity required for shifting the curve to the right to double concentration was calculated.

T1 sequence (P47747 whole entry): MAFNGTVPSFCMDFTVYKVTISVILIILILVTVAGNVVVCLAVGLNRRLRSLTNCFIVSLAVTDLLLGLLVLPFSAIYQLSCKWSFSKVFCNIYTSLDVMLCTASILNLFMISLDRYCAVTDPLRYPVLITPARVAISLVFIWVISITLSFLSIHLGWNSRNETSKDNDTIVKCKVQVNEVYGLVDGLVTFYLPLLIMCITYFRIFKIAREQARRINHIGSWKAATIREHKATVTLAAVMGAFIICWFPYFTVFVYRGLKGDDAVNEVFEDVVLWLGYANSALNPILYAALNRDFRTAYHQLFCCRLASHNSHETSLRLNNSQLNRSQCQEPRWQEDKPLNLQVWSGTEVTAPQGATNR

Regarding `CN(C)Cc1nc2cc(CSCCNC(N)=NS(=O)(=O)c3ccccc3)ccc2[nH]1` [Example 46, N-benzenesulfonyl-N'-[2-<5-(2-dimethylaminomethylbenzimidazolyl)methylthio>ethyl]guanidine], the inhibition in vivo at 2 mg/kg in assay [1] was found to be 72%. For the same compound, the Kb in assay [2] is 1170 nM.

`CNC(=NC#N)NCCCOc1ccc2[nH]c(CN3CCCC3)nc2c1` [Example 3]: the inhibition in vivo at 2 mg/kg in assay [1] was 54%. Besides, in assay [2], the Kb was 1170 nM.

With `CNC(=C[N+](=O)[O-])NCCSCc1ccc2[nH]c(CN(C)C)nc2c1` [Example 42, 1-nitro-2-methylamino-2-[2-<5-(2-dimethylaminomethylbenzimidazolyl)methylthio>ethylamino]ethylene], the inhibition in vivo at 2 mg/kg in assay [1] is 93%. Further, the Kb in assay [2] is 1450 nM.

Take `CN(C)Cc1nc2cc(CSCCNc3nnc(Cc4cccnc4)c(=O)[nH]3)ccc2[nH]1` [Example 87, 3-[2-<5-(2-dimethylaminomethylbenzimidazolyl)methylthio>ethylamino]-6-(3-pyridylmethyl)-1,2,4-triazine-5-one]: the inhibition in vivo at 2 mg/kg in assay [1] was found to be 84%. For the same compound, in assay [2], the Kb is 603 nM.

As for “1-methyl-3-pyridylideneimino-5-[2-<5-(2-dimethylaminomethylbenzimidazolyl)methylthio>ethyl]-1H-1,2,4-triazole-5-amine [Example 100]”, the “inhibitory effect of acid secretion (%) at 2 mg/kg s.c.” value in assay [1] (n=5, * significant at 5%) was found to be 72%. Moreover, in assay [2], the “inhibitory effect of histamine H2 receptor in atria (pA2 value)” value amounted to 5.75.

On to `CN(C)Cc1nc2cc(CSCCCC(N)=NS(N)(=O)=O)ccc2[nH]1` [Example 122, N-sulfamoyl-4-[5-(2-dimethylaminomethylbenzimidazolyl)methylthio]butyroamidine], for which the inhibition in vivo at 2 mg/kg in assay [1] turned out to be 32%. Besides, the Kb in assay [2] was 2450 nM.

For the compound `O=c1[nH]c(NCCCOc2ccc3[nH]c(CN4CCCCC4)nc3c2)ncc1Cc1ccc2c(c1)OCO2` [Example 64, 5-[5-(1,3-benzodioxolyl)methyl]-2-[3-<5-(2-(1-piperidinomethyl)benzimidazolyl)oxy>propylamino]-4-pyrimidone], the inhibition in vivo at 2 mg/kg in assay [1] stood at 76%. Further, the Kb in assay [2] is 5890 nM.

On to `O=c1[nH]c(NCCCOc2ccc3[nH]c(CN4CCCC4)nc3c2)ncc1Cc1cccnc1` [Example 67, 2-{3-[5-<2-(1-pyrrolidinomethyl)benzimidazolyl>oxy]propylamino}-5-(3-pyridylmethyl)-4-pyrimidone], for which, in assay [1], the inhibition in vivo at 2 mg/kg came to 93%. In assay [2], the Kb was 4680 nM.

For the compound `CNC(=C[N+](=O)[O-])NCCOc1ccc2[nH]c(CN3CCCC3)nc2c1` [Example 25, 1-nitro-2-methylamino-2-[2-<5-(2-(1-pyrrolidinomethyl)benzimidazolyl)oxy>ethylamino]ethylene], the inhibition in vivo at 2 mg/kg in assay [1] worked out at 99%. Moreover, the Kb in assay [2] was 631 nM.

Consider `CNC(=C[N+](=O)[O-])NCCCCOc1ccc2[nH]c(CN3CCCCC3)nc2c1` [Example 30, 1-nitro-2-methylamino-2-{4-[5-<2-(1-piperidinomethyl)benzimidazolyl>oxy]butylamino}ethylene], for which, in assay [1], the inhibition in vivo at 2 mg/kg was determined as 78%. Moreover, in assay [2], the Kb is 1380 nM.

Take `CCNc1n[s+]([O-])nc1NCCCOc1ccc2[nH]c(CN(C)C)nc2c1` (centres unmarked) [Example 102, 3-[3-<5-(2-dimethylaminomethylbensimidazolyl)oxi>propyl]amino-4-ethylamino-1,2,5-thiadiazol-1-oxide]: the inhibition in vivo at 2 mg/kg in assay [1] came out at 68%. In addition, the Kb in assay [2] was 2190 nM.

As for `CN(C)Cc1nc2cc(OCCCNc3ncc(CN(C)C)c(=O)[nH]3)ccc2[nH]1` [Example 60, 5-dimethylaminomethyl-[3-<5-(2-dimethylaminomethylbenzimidazolyl)oxy>propylamino]-4-pyrimidone], the inhibition in vivo at 2 mg/kg in assay [1] worked out at 56%. The Kb in assay [2] is 3550 nM.

Regarding `C#CCNC(=C[N+](=O)[O-])NCCSCc1ccc2[nH]c(CN(C)C)nc2c1` [Example 44, 1-nitro-2-propargylamino-2-[2-<5-(2-dimethylaminomethylbenzimidazolyl)methylthio>ethylamino]ethylene], the inhibition in vivo at 2 mg/kg in assay [1] came out at 57%. In addition, the Kb in assay [2] is 631 nM.

Consider `CNC(=NC#N)NCCCSCc1ccc2[nH]c(CN(C)C)nc2c1` [Example 37, N-cyano-N'-methyl-N"-[3-<5-(2-dimethylaminomethylbenzimidazolyl)methylthio>propyl]guanidine], for which the inhibition in vivo at 2 mg/kg in assay [1] came out at 38%. In assay [2], the Kb is 1660 nM.

In the case of `Nc1n[s+]([O-])nc1NCCCOc1ccc2[nH]c(CN3CCCCC3)nc2c1` (centres unmarked) [Example 101], the inhibition in vivo at 2 mg/kg in assay [1] worked out at 97%. Also, in assay [2], the Kb was 2950 nM.

As to `O=c1[nH]c(NCCCOc2ccc3[nH]c(CN4CCCCC4)nc3c2)nnc1Cc1cccnc1` [Example 85, 3-{3-[5-<2-(1-piperidinomethyl)benzimidazolyl>oxy]propylamino}-6-(3-pyridylmethyl)-1,2,4-triazine-5-one], the inhibition in vivo at 2 mg/kg in assay [1] was found to be 46%. Moreover, the Kb in assay [2] was 1950 nM.

Turning to `Nc1n[s+]([O-])nc1NCCSCc1ccc2[nH]c(CN3CCCCC3)nc2c1` (centres unmarked) [Example 105, 3-{2-[5-<2-(1-piperidinomethyl)benzimidazolyl>methylthio]ethyl}amino-4-amino-1,2,5-thiadiazole-1-oxide], the inhibition in vivo at 2 mg/kg in assay [1] was 92%. For the same compound, in assay [2], the “inhibitory effect of histamine H2 receptor in atria (pA2 value)” value is 6.08.

Regarding `CNC(=NC#N)NCCCCOc1ccc2[nH]c(CN(C)C)nc2c1` [Example 2, N-cyano-N'-methyl-N"-[4-<5-(2-dimethylaminomethylbenzimidazolyl)oxy>butyl]guanidine], the inhibition in vivo at 2 mg/kg in assay [1] was 75%. The Kb in assay [2] is 1510 nM.

With `CN(C)Cc1nc2cc(CSCCNc3nccc(=O)[nH]3)ccc2[nH]1` [Example 72, 2-[2-<5-(2-dimethyaminomethylbenzimidazolyl)methylthio>ethylamino]-4-pyrimidone], the inhibition in vivo at 2 mg/kg in assay [1] was 53%. For the same compound, the Kb in assay [2] is 851 nM.

`CN(C)Cc1nc2cc(OCCCNc3nnc(Cc4cccnc4)c(=O)[nH]3)ccc2[nH]1` [Example 83, 3-[3-<5-(2-dimethylaminomethylbenzimidazolyl)oxy>propylamino]-6-(3-pyridylmethyl)-1,2,4-triazine-5-one]: the inhibition in vivo at 2 mg/kg in assay [1] is 78%. For the same compound, the Kb in assay [2] was 4070 nM.

As to `CN(C)Cc1cnc(NCCCOc2ccc3[nH]c(CN4CCCCC4)nc3c2)[nH]c1=O` [Example 61, 5-dimethylaminomethyl-2-[3-<5-(2-(1-piperidinomethyl)benzimidazolyl)oxy>propylamino]-4-pyrimidone], the inhibition in vivo at 2 mg/kg in assay [1] is 64%. Also, the Kb in assay [2] was 3090 nM.

Take `CN(C)Cc1nc2cc(CSCCNc3ncc(CN(C)C)c(=O)[nH]3)ccc2[nH]1` [Example 73, 2-[2-<5-(2-dimethylaminomethylbenzimidazolyl)methylthio>ethylamino]-5-dimethylaminomethyl-4-pyrimidone]: the inhibition in vivo at 2 mg/kg in assay [1] was determined as 91%. Also, the Kb in assay [2] was 631 nM.

For the compound `O=c1[nH]c(NCCCOc2ccc3[nH]c(CN4CCCCC4)nc3c2)ncc1Cc1cccnc1` [Example 68, 2-{3-[5-<2-(1-piperidinomethyl)benzimidazolyl>oxy]propylamino}-5-(3-pyridylmethyl)-4-pyrimidone], in assay [1], the inhibition in vivo at 2 mg/kg turned out to be 90%. The Kb in assay [2] was 9550 nM.

For the compound `CN(C)Cc1nc2cc(CSCCNC(N)=NC#N)ccc2[nH]1` [Example 34, N-cyano-N'-[2-<5-(2-dimethylaminomethylbenzimidazolyl)methylthio>ethyl]guanidine], in assay [1], the inhibition in vivo at 2 mg/kg is 52%. For the same compound, the Kb in assay [2] is 832 nM.

Take `O=c1[nH]c(NCCCOc2ccc3[nH]c(CN4CCCC4)nc3c2)ncc1Cc1ccc2c(c1)OCO2` [Example 63, 5-[5-(1,3-benzodioxolyl)methyl]-2-[3-<5-(2-(1-pyrrolidinomethyl)benzimidazolyl)oxy>propylamino]-4-pyrimidone]: the inhibition in vivo at 2 mg/kg in assay [1] turned out to be 78%. Moreover, in assay [2], the Kb is 4070 nM.

For the compound `CCNc1n[s+]([O-])nc1NCCSCc1ccc2[nH]c(CN(C)C)nc2c1` (centres unmarked) [Example 108, 3-[2-<5-(2-dimethylaminomethylbenzimidazolyl)methylthio>ethyl]amino-4-ethylamino-1,2,5-thiadiazole-1-oxide], the inhibition in vivo at 2 mg/kg in assay [1] amounted to 77%. In assay [2], the Kb was 1450 nM.

As for `CN(C)Cc1nc2cc(CSCCNc3nc(N)n[nH]3)ccc2[nH]1` [Example 96, 5-[2-<5-(2-dimethylaminomethylbenzimidazolyl)methylthio>ethyl]-1H-1,2,4-triazole-3,5-diamine], the Kb in assay [2] was 933 nM.
